Values after ≈ are worked out from the molar mass of the structure shown. Values belong to the compound of their own block, whether it stands above or below them.
Tests used:
Assay type in all cases: cell-based
[1] = system: nasopharyngeal carcinoma cell CNE-1; assay: MTT anti-tumor experiment in vitro, inhibition of nasopharyngeal carcinoma cell CNE-1
Description: (§1) Experiment 1, anti-tumor experiment of MTT in vitro
Inhibition experiment of nasopharyngeal carcinoma cell CNE-1
(§2) F1, 0.25% trypsin was added to nasopharyngeal carcinoma cell CNE-1 in the logarithmic growth phase for cell dissociation until adherent cells were failed off. Cell suspension containing 2×10^4 nasopharyngeal carcinoma cells CNE-1 per mL was prepared.
(§3) F2, a 96-well plate was taken, one row of the 96-well plate was set as a blank group, 9 rows were set as the experimental group 1, one row was set as the experimental group 2, and one row was set as the negative control group, wherein 6 wells in the middle of each row were used for the experiment and was added of 100 μL of RPMI-1640 medium, wherein the medium of negative control group contained 1% DMSO.
(§4) F3, 100 μL of cell suspension was added to each well of the blank group, the experimental group 1, the experimental group 2, and the negative control group. Then, the 96-well plate was placed in an incubator at 37 degree Celsius, 5% CO2, and 95% humidity, and cultured in the incubator for 12 hours. 100 μL phenylbenzofuran compound (phenylbenzofuran compound of embodiment 3) with a concentration was added to wells of each row of 9 rows in the experimental group 1, ie, 10 μg/mL, 20 μg/mL, 30 μg/mL, 40 μg/mL, 50 μg/mL, 60 μg/mL, 70 μg/mL, 80 μg/mL, and 90 μg/mL, wherein the concentration of phenylbenzofuran compound of wells in the same row was equal. As a parallel experiment, cisplatin (80 μg/mL, 100 μL) was added to wells of a row in the experimental group 2. Then, the 96-well plate was placed in an incubator at 37 degree Celsius, 5% CO2, and 95% humidity, and cultured in the incubator for 48 hours. MTT (5 mg/mL, 20 μL) was added to each well. Then, the 96-well plate was placed in an incubator at 37 degree Celsius, 5% CO2, and 95% humidity, and cultured in the incubator for 4 hours. The supernatant as removed by a pipette tip, 150 μL of DMSO was added, and the mixture was shaken for 10 minutes in a micro shaker to cause complete dissolution of crystal. The OD value of each well was measured at a wavelength of 570 nm by a microplate reader, and the IC50 value was calculated. That is, the concentration when the inhibition rate of the cells reached 50% was the IC50 value.
Proliferation rate of CNE-1 cell=(average of experimental group-average of blank control group)/(average of negative control group-average of blank control group)×100%.
Inhibition rate of CNE-1 cell=[…] of CNE-1 cell.

[2] = system: nasopharyngeal carcinoma cell CNE-2; assay: MTT anti-tumor experiment in vitro, inhibition of nasopharyngeal carcinoma cell CNE-2
Description: as §1, §2, §3, §4
Inhibition experiment of nasopharyngeal carcinoma cell CNE-2
The experimental procedure of the inhibition experiment of nasopharyngeal carcinoma cell CNE-2 was the same as that of the inhibition experiment of nasopharyngeal carcinoma cell CNE-1, except that the nasopharyngeal carcinoma cell CNE-1 was replaced with the nasopharyngeal carcinoma cell CNE-2.

[3] = system: nasopharyngeal carcinoma cell CNE-1; assay: MTT anti-tumor experiment in vitro, inhibition of nasopharyngeal carcinoma cell CNE-1; settings: 100 μg/mL, 48 hours, read-out: Inhibition rate of nasopharyngeal carcinoma cells (%) CNE-1
[4] = system: nasopharyngeal carcinoma cell CNE-2; assay: MTT anti-tumor experiment in vitro, inhibition of nasopharyngeal carcinoma cell CNE-2; settings: Homo sapiens, 100 μg/mL, 48 hours, read-out: Inhibition rate of nasopharyngeal carcinoma cells (%) CNE-2

SMILES: N.N.[Cl][Pt][Cl] [Cisplatin, cisplatin, reference compound]
- Inhibition rate of nasopharyngeal carcinoma cells (%) CNE-1 ([1]; 80 μg/mL, 48 hours, MTT): 94.21 ± 0.18%
- Inhibition rate of nasopharyngeal carcinoma cells (%) CNE-2 ([2]; 80 μg/mL, 48 hours, MTT): 97.37 ± 0.49%

- IC50 ([1]; CNE-1, 48 hours, read-out: concentration at which the inhibition rate reaches half inhibition growth effect): 20 µg/mL (≈ 74 µM)
- IC50 ([2]; Homo sapiens, CNE-2, 48 hours, read-out: concentration at which the inhibition rate reaches half inhibition growth effect): 15 µg/mL (≈ 55.5 µM)
SMILES: Oc1ccc(-c2cc3cc4c(cc3o2)OCO4)c(O)c1 [Phenylbenzofuran compound]
- inhibition at 10 µg/mL ([1]; 10 μg/mL, 48 hours, MTT, read-out: Inhibition rate of nasopharyngeal carcinoma cells (%) CNE-1): 25 ± 0.07%
- inhibition at 20 µg/mL ([1]; 20 μg/mL, 48 hours, MTT, read-out: Inhibition rate of nasopharyngeal carcinoma cells (%) CNE-1): 37.57 ± 0.03%
- inhibition at 30 µg/mL ([1]; 30 μg/mL, 48 hours, MTT, read-out: Inhibition rate of nasopharyngeal carcinoma cells (%) CNE-1): 45.52 ± 0.07%
- inhibition at 40 µg/mL ([1]; 40 μg/mL, 48 hours, MTT, read-out: Inhibition rate of nasopharyngeal carcinoma cells (%) CNE-1): 60.37 ± 0.06%
- inhibition at 50 µg/mL ([1]; 50 μg/mL, 48 hours, MTT, read-out: Inhibition rate of nasopharyngeal carcinoma cells (%) CNE-1): 68.5 ± 0.09%
- inhibition at 60 µg/mL ([1]; 60 μg/mL, 48 hours, MTT, read-out: Inhibition rate of nasopharyngeal carcinoma cells (%) CNE-1): 75.01 ± 0.13%
- inhibition at 70 µg/mL ([1]; 70 μg/mL, 48 hours, MTT, read-out: Inhibition rate of nasopharyngeal carcinoma cells (%) CNE-1): 85.83 ± 0.06%
- inhibition at 80 µg/mL ([1]; 80 μg/mL, 48 hours, MTT, read-out: Inhibition rate of nasopharyngeal carcinoma cells (%) CNE-1): 97.02 ± 0.11%
- inhibition at 90 µg/mL ([1]; 90 μg/mL, 48 hours, MTT, read-out: Inhibition rate of nasopharyngeal carcinoma cells (%) CNE-1): 97.81 ± 0.06%
- inhibition at 10 µg/mL ([2]; Homo sapiens, CNE-2, 10 μg/mL, 48 hours, MTT, read-out: Inhibition rate of nasopharyngeal carcinoma cells (%) CNE-2): 28.4 ± 0.36%
- inhibition at 20 µg/mL ([2]; Homo sapiens, CNE-2, 20 μg/mL, 48 hours, MTT, read-out: Inhibition rate of nasopharyngeal carcinoma cells (%) CNE-2): 43.61 ± 0.29%
- inhibition at 30 µg/mL ([2]; Homo sapiens, CNE-2, 30 μg/mL, 48 hours, MTT, read-out: Inhibition rate of nasopharyngeal carcinoma cells (%) CNE-2): 48.5 ± 0.6%
- inhibition at 40 µg/mL ([2]; Homo sapiens, CNE-2, 40 μg/mL, 48 hours, MTT, read-out: Inhibition rate of nasopharyngeal carcinoma cells (%) CNE-2): 75.18 ± 0.09%
- inhibition at 50 µg/mL ([2]; Homo sapiens, CNE-2, 50 μg/mL, 48 hours, MTT, read-out: Inhibition rate of nasopharyngeal carcinoma cells (%) CNE-2): 84.42 ± 0.44%
- inhibition at 60 µg/mL ([2]; Homo sapiens, CNE-2, 60 μg/mL, 48 hours, MTT, read-out: Inhibition rate of nasopharyngeal carcinoma cells (%) CNE-2): 95.13 ± 0.22%
- inhibition at 70 µg/mL ([2]; Homo sapiens, CNE-2, 70 μg/mL, 48 hours, MTT, read-out: Inhibition rate of nasopharyngeal carcinoma cells (%) CNE-2): 97.27 ± 0.6%
- inhibition at 80 µg/mL ([2]; Homo sapiens, CNE-2, 80 μg/mL, 48 hours, MTT, read-out: Inhibition rate of nasopharyngeal carcinoma cells (%) CNE-2): 98.78 ± 0.09%
- inhibition at 90 µg/mL ([2]; Homo sapiens, CNE-2, 90 μg/mL, 48 hours, MTT, read-out: Inhibition rate of nasopharyngeal carcinoma cells (%) CNE-2): 98.82 ± 0.44%
- inhibition at 100 µg/mL [3]: 97.41 ± 0.02%
- inhibition at 100 µg/mL [4]: 98.64 ± 0.22%

From patent US11208419B2, “Phenylbenzofuran compound, preparation method therefor, composition containing the same and medical application thereof” (Guangxi Botanical Garden of Medicinal Plants, priority 2018, dated 2021)
